Measurements as given in patent publication US20230086702A1, “SUBSTITUTED 2-AMINO-PYRAZOLYL-[1,2,4]TRIAZOLO[1,5A]PYRIDINE DERIVATIVES AND USE THEREOF” (The Johns Hopkins University, priority 2019, published 2023).

Experiments:
DLK = biological target: T1, DLK (Homo sapiens, UniProt Q12852); assay: DLK biochemical assay (TR-FRET, MKK7 phosphorylation)
T1 construct: 10 nM DLK, catalytic domain, Carna Biosiences; purchased Carna Biosciences ('Carna Biosiences' [sic])
T1 sequence (Q12852 125-366 limits assumed): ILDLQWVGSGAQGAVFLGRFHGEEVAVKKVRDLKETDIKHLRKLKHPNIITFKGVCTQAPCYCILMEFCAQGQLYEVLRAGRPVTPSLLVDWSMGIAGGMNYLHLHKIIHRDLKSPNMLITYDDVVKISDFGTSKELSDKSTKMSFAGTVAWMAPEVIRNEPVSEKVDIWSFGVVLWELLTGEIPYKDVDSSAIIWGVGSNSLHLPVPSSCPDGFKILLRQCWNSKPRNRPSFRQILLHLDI
Experimental: (§1) DLK assay is a biochemical assay format designed to screen for inhibitors of DLK. Enzymatic activity of DLK is measured by monitoring phosphorylation of the physiological substrate MKK7 (MAP2K7, Dual specificity mitogen-activated protein kinase kinase 7). Phosphorylation is detected by a TR-FRET system whereby His-tagged MKK7 is labeled by a XL665-labeled anti-His antibody (FRET acceptor, emission 665 nm). DLK phosphorylates MKK7 at T275/S277, which is detected by an Eu-labeled anti-phospho-MKK7 (T275/S277) antibody (FRET donor, excitation 340 nm). Phosphorylation of MKK7 results in an increased TR-FRET signal (Ratio XL665-channel/Eu-channel) and inhibition of enzymatic activity of DLK decreases the TR-FRET signal.
Assay Protocol for 1536 MTP format: test compounds are predispensed (60 nl) in test plates; +3 μl DLK solution (10 nM DLK, catalytic domain, Carna Biosiences, 0.6 mM DTT in assay buffer); +2 μl substrate solution (15 nM MKK7, LDB; 60 μM ATP; 0.4 mM DTT in assay buffer); 90 min incubation at RT; +2 μl detection mix (5 nM XL665-labeled anti-His antibody, Cisbio; 0.1 nM Eu-labeled anti-phospho-MKK7 (T275/S277), Cisbio/Millipore in detection buffer); 16 h incubation at 37° C.; endpoint measurement BMG (HTRF).
(§2) Assay Protocol for 384 low volume MTP format: 1 μl of test compounds is pipetted into test plate; +5 μl DLK solution (10 nM DLK, catalytic domain, Carna Biosiences in assay buffer); +5 μl substrate solution (15 nM MKK7, LDB; 60 μM ATP, in assay buffer); 90 min incubation at RT; +9 μl detection mix (20 nM XL665-labeled anti-His antibody, Cisbio; 0.4 nM Eu-labeled anti-phospho-MKK7 (T275/S277), Cisbio/Millipore in detection buffer); 16 h incubation at 4° C.; endpoint measurement BMG (HTRF).
(§3) All indicated concentrations final concentrations.
(§4) Assay buffer (384 format): 50 mM Hepes pH 7.5, 10 mM MgCl2, 1 mM EGTA, 1 mM DTT, 0.01% Triton X-100, 0.01% BSA, 1:500 Smart Block.
(§5) Detection buffer: 25 mM Tris/HCl pH 7.5, 100 mM EDTA, 100 mM NaCl, 200 mM KF, 0.01% Tween 20, 1:500 Smart Block.

LZK = biological target: T2, LZK (Homo sapiens, UniProt O43283); assay: LZK biochemical assay (TR-FRET, MKK7 phosphorylation)
T2 construct: 10 nM LZK, catalytic domain, Carna Biosiences in assay buffer; purchased Carna Biosciences ('Carna Biosiences' [sic])
T2 sequence (O43283 168-409 limits assumed): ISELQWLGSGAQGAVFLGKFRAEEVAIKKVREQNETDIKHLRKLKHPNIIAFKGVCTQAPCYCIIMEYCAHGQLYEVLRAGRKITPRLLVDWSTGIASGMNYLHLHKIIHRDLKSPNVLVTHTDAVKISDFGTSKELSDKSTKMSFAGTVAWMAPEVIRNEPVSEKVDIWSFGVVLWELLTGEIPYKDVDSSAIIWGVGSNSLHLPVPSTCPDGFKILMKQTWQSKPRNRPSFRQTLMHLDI
Experimental: as §1, with “LZK” for “DLK”, “LZK.” for “DLK.”, “T275/S277” for “T275/S277,”
as §2, with “compound” for “compounds”, “LZK” for “DLK”, “LZK,” for “DLK,”, “15” for “60”, “+5” for “+9”, “32°” for “4°”
as §3, §4, §5

Row | SMILES | IC50 (DLK) | IC50 (LZK)
1 | CC[C@@H](c1ccccc1)n1cc(-c2cc(-c3cnn(C(C)C(F)(F)F)c3)c3nc(N)nn3c2)cn1 (mixture of isomers) [II-94, 6-{1-[(15)-1-Phenylpropyl]-1H-pyrazol-4-yl}-8-[1-(1,1,1-trifluoropropan-2-yl)-1H-pyrazol-4-yl][1,2,4]triazolo[1,5-a]pyridin-2-amine] | 22 nM | 200 nM
2 | CCC(c1ccc(C(F)(F)F)nc1)n1cc(-c2cc(-c3cc(CO)ccc3Cl)c3nc(N)nn3c2)cn1 (racemic) [II-1, {3-[2-Amino-6-(1-{1-[6-(trifluoromethyl)pyridin-3-yl]propyl}-1H-pyrazol-4-yl)[1,2,4]triazolo[1,5-a]pyridin-8-yl]-4-chlorophenyl}methanol] | 6.3 nM | 2.3 nM
3 | Nc1nc2c(-c3cc(CO)ccc3Cl)cc(-c3cnn(C(c4ccc(C(F)(F)F)nc4)C4CCOCC4)c3)cn2n1 (racemic) [II-4, {3-[2-Amino-6-(1-{tetrahydro-2H-pyran-4-yl[6-(trifluoromethyl)pyridin-3-yl]methyl}-1H-pyrazol-4-yl)[1,2,4]triazolo[1,5-a]pyridin-8-yl]-4-chlorophenyl}methanol] | 7 nM | 5.9 nM
4 | CCC(c1ccc(C(F)(F)F)nc1)n1cc(-c2cc(-c3ccnc(OC(F)F)c3)c3nc(N)nn3c2)cn1 (racemic) [II-25, 8-[2-(Difluoromethoxy)pyridin-4-yl]-6-(1-{1-[6-(trifluoromethyl)pyridin-3-yl]propyl}-1H-pyrazol-4-yl)[1,2,4]triazolo[1,5-a]pyridin-2-amine] | 130 nM | 82 nM
5 | CC(C)C(c1ccc(C(F)(F)F)nc1)n1cc(-c2cc(-c3ccnc(C(F)(F)F)c3)n3nc(N)nc3c2)cn1 (racemic) [II-28, 7-(1-{2-Methyl-1-[6-(trifluoromethyl)pyridin-3-yl]propyl}-1H-pyrazol-4-yl)-5-[2-(trifluoromethyl)pyridin-4-yl][1,2,4]triazolo[1,5-a]pyridin-2-amine] | 28 nM | 27 nM
6 | CCC(c1ccc(C(F)(F)F)nc1)n1cc(-c2cc(-c3ccnc(C4(F)CC4)c3)n3nc(N)nc3c2)cn1 (racemic) [II-31, 5-[2-(1-Fluorocyclopropyl)pyridin-4-yl]-7-(1-{1-[6-(trifluoromethyl)pyridin-3-yl]propyl}-1H-pyrazol-4-yl)[1,2,4]triazolo[1,5-a]pyridin-2-amine] | 26 nM | 6.1 nM
7 | Nc1nc2cc(-c3cnn(C(c4ccc(C(F)(F)F)nc4)C4CCOCC4)c3)cc(-c3ccnc(C(F)(F)F)c3)n2n1 (racemic) [II-34, 7-(1-{Tetrahydro-2H-pyran-4-yl[6-(trifluoromethyl)pyridin-3-yl]methyl}-1H-pyrazol-4-yl)-5-[2-(trifluoromethyl)pyridin-4-yl][1,2,4]triazolo[1,5-a]pyridin-2-amine] | 15 nM | 7.1 nM
8 | CCC(c1ccc(C(F)(F)F)nc1)n1cc(-c2cc(-c3ccc(C(F)(F)F)nc3)c3nc(N)nn3c2)cn1 (racemic) [II-37, 8-[6-(Trifluoromethyl)pyridin-3-yl]-6-(1-{1-[6-(trifluoromethyl)pyridin-3-yl]propyl}-1H-pyrazol-4-yl)[1,2,4]triazolo[1,5-a]pyridin-2-amine] | 46 nM | 74 nM
9 | CC(C)C(c1ccc(C(F)(F)F)nc1)n1cc(-c2cc(-c3ccc(C(F)(F)F)nc3)c3nc(N)nn3c2)cn1 (racemic) [II-40, 6-(1-{2-Methyl-1-[6-(trifluoromethyl)pyridin-3-yl]propyl}-1H-pyrazol-4-yl)-8-[6-(trifluoromethyl)pyridin-3-yl][1,2,4]triazolo[1,5-a]pyridin-2-amine] | 44 nM | 120 nM
10 | CC(C)C(c1ccc(C(F)(F)F)nc1)n1cc(-c2cc(-c3ccc(C4CC4)nc3)c3nc(N)nn3c2)cn1 (racemic) [II-43, 8-(6-Cyclopropylpyridin-3-yl)-6-(1-{2-methyl-1-[6-(trifluoromethyl)pyridin-3-yl]propyl}-1H-pyrazol-4-yl)[1,2,4]triazolo[1,5-a]pyridin-2-amine] | 4.2 nM | 26 nM

Results, then the compound that gave them:

Row | IC50 (DLK) | IC50 (LZK) | SMILES
11 | 0.8 nM | 3.3 nM | CCC(c1ccc(C(F)(F)F)nc1)n1cc(-c2cc(-c3cccc(C(C)(C)O)c3)c3nc(N)nn3c2)cn1 (racemic) [II-7, 2-{3-[2-Amino-6-(1-{1-[6-(trifluoromethyl)pyridin-3-yl]propyl}-1H-pyrazol-4-yl)[1,2,4]triazolo[1,5-a]pyridin-8-yl]phenyl}propan-2-ol]
12 | 0.7 nM | 0.9 nM | CC(C)(O)c1cccc(-c2cc(-c3cnn(C(c4ccc(C(F)(F)F)nc4)C4CCOCC4)c3)cn3nc(N)nc23)c1 (racemic) [II-10, 2-{3-[2-Amino-6-(1-{tetrahydro-2H-pyran-4-yl[6-(trifluoromethyl)pyridin-3-yl]methyl}-1H-pyrazol-4-yl)[1,2,4]triazolo[1,5-a]pyridin-8-yl]phenyl}propan-2-ol]
13 | 0.7 nM | 1.8 nM | CS(=O)(=O)c1cccc(-c2cc(-c3cnn(C(c4ccc(C(F)(F)F)nc4)C4CCOCC4)c3)cn3nc(N)nc23)c1 (racemic) [II-13, 8-[3-(Methylsulfonyl)phenyl]-6-(1-{tetrahydro-2H-pyran-4-yl[6-(trifluoromethyl)pyridin-3-yl]methyl}-1H-pyrazol-4-yl)[1,2,4]triazolo[1,5-a]pyridin-2-amine]
14 | 1.1 nM | 3.5 nM | CCS(=O)(=O)c1cccc(-c2cc(-c3cnn(C(c4ccc(C(F)(F)F)nc4)C4CCOCC4)c3)cn3nc(N)nc23)c1 (racemic) [II-16, 8-[3-(Ethylsulfonyl)phenyl]-6-(1-{tetrahydro-2H-pyran-4-yl[6-(trifluoromethyl)pyridin-3-yl]methyl}-1H-pyrazol-4-yl)[1,2,4]triazolo[1,5-a]pyridin-2-amine]
15 | 17 nM | 45 nM | Nc1nc2c(-c3cccc(S(=O)(=O)C(F)(F)F)c3)cc(-c3cnn(C(c4ccc(C(F)(F)F)nc4)C4CCOCC4)c3)cn2n1 (racemic) [II-19, 6-(1-{Tetrahydro-2H-pyran-4-yl[6-(trifluoromethyl)pyridin-3-yl]methyl}-1H-pyrazol-4-yl)-8-{3-[(trifluoromethyl)sulfonyl]phenyl}[1,2,4]triazolo[1,5-a]pyridin-2-amine]
16 | 2.2 nM | 6.6 nM | CN(C)c1cccc(-c2cc(-c3cnn(C(c4ccc(C(F)(F)F)nc4)C4CCOCC4)c3)cn3nc(N)nc23)c1 (racemic) [II-22, 8-[3-(Dimethylamino)phenyl]-6-(1-{tetrahydro-2H-pyran-4-yl[6-(trifluoromethyl)pyridin-3-yl]methyl}-1H-pyrazol-4-yl)[1,2,4]triazolo[1,5-a]pyridin-2-amine]
